Target: T1, CCR9 (Homo sapiens, UniProt P51686)
T1 construct: chemokine expressing cells (such as THP-1 cells for CCR2 assay or MOLT-4 cells for CCR9 assay); host or cells: MOLT-4
T1 sequence (P51686 1-369): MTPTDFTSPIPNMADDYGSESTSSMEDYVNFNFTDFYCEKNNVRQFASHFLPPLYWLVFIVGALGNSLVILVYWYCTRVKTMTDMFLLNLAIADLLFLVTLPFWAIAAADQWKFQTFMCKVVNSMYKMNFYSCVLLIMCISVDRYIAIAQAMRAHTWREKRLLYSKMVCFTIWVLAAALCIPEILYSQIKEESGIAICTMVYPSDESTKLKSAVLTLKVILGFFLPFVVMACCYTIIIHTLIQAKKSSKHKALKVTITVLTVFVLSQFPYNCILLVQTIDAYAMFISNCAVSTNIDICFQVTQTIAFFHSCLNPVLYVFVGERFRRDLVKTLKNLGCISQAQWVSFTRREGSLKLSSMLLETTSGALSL
Assay: CCR9 activity in one of the chemotaxis, binding or calcium mobilization assays
Assay type: cell-based
Conditions: assay not specified per compound
Experimental: Conventional migration assay was used to determine the efficacy of potential receptor antagonists in blocking migration mediated through chemokines (such as CCR2 or CCR9). This assay was routinely performed using the ChemoTX® microchamber system with a 5-μm pore-sized polycarbonate membrane. To begin such an assay, chemokine expressing cells (such as THP-1 cells for CCR2 assay or MOLT-4 cells for CCR9 assay) were harvested by centrifugation of cell suspension at 1000 RPM on a GS-6R Beckman centrifuge. The cell pellet was resuspended in chemotaxis buffer (HBSS with 0.1% BSA) at 10×10^6 cells/mL for CCR2 assay (5×10^6 cells/mL for CCR9 assay). Test compounds at desired concentrations were prepared from 10 mM stock solutions by serial dilutions in chemotaxis buffer. An equal volume of cells and compounds were mixed and incubated at room temperature for 15 minutes. Afterwards, 20 μL of the mixture was transferred onto the porous membrane of a migration microchamber, with 29 μL of chemokine ligand (0.1 nM chemokine MCP-1 protein for CCR2 assay or […] chemokine TECK protein for CCR9 assay) placed at the lower chamber. Following an incubation at 37° C. (90-minute for CCR2; 150-minute for CCR9), during which cells migrated against the chemokine gradient, the assay was terminated by removing the cell drops from atop the filter. To quantify cells migrated across the membrane, 5 μL of 7×CyQUANT® solution was added to each well in the lower chamber, and the fluorescence signal measured on a Spectrafluor Plus fluorescence plate reader (TECAN, Durham, N.C.). The degree of inhibition was determined by comparing migration signals between compound-treated and untreated cells. IC50 calculation was further performed by non-linear squares regression analysis using Graphpad Prism (Graphpad Software, San Diego, Calif.).
Calcium flux assay measures an increase in intracellular calcium following ligand-induced receptor activation. In the screen of chemokine antagonists, it was used as a secondary assay carried out on a FLIPR® machine (Molecular Devices, Mountain View, Calif.). To begin an assay, chemokine expressing cells (such as THP-1 cells for CCR2 assay or MOLT-4 cells for CCR9 assay) were harvested by centrifugation of cell suspension, and resuspended to 1.5×10^6 cells/mL in HBSS (with 1% fetal calf serum). Cells were then labeled with a calcium indicator dye Fluo-4 AM for 45 minutes at 37° C. with gentle shaking. Following incubation, cells were pelletted, washed once with HBSS and resuspended in the same buffer at a density of 1.6×10^6 cells/mL. One hundred microliters of labeled cells were mixed with 10 μL of test compound at the appropriate concentrations on an assay plate. Chemokine protein (MCP-1 at a final concentration of 0.1 nM for CCR2 assay or TECK at a final concentration of 25 nM for CCR9 assay) to activate the receptor. The degree of inhibition was determined by comparing calcium signals between compound-treated and untreated cells. IC50 calculations were further performed by non-linear squares regression analysis using Graphpad Prism (Graphpad Software, San Diego, Calif.). […]
In the tables below, structures and activity are provided for representative compounds described herein. Activity is provided as follows for either or both of the chemotaxis assay and/or calcium mobilization assays, described above.

Row | SMILES | IC50 [µM]
1 | Cn1c(CS(C)(=O)=O)nnc1-c1cc(Cl)c(F)cc1NS(=O)(=O)c1ccc(C(C)(C)C)cc1 [Compound 67, 4-tert-butyl-N-(4-chloro-5-fluoro-2-(4-methyl-5-(methylsulfonylmethyl)-4H-1,2,4-triazol-3-yl)phenyl)benzenesulfonamide] | < 1
2 | Cn1c(CNC2CCOCC2)nnc1-c1cc(Cl)c(F)cc1NS(=O)(=O)c1ccc(C(C)(C)C)cc1 [Compound 152] | < 1
3 | Cc1ocnc1-c1nnc(-c2cc(Cl)c(F)cc2NS(=O)(=O)c2ccc(C(C)(C)C)cc2)n1C [Compound 79] | < 1
4 | Cn1c(CN[C@H]2CCOC2)nnc1-c1cc(Cl)c(F)cc1NS(=O)(=O)c1ccc(C(C)(C)C)cc1 [Compound 148] | < 1
5 | CC(C)(C)c1ccc(S(=O)(=O)Nc2ccc(Cl)cc2-c2nncn2C2CCOC2)cc1 (centres unmarked) [Compound 35] | < 1
6 | Cn1c(-c2cc(Cl)ccc2NS(=O)(=O)c2ccc(C(C)(C)C)cc2)nnc1C1CCNCC1 [Compound 70] | < 1
7 | CC(C)N1CC[C@H](n2cnnc2-c2cc(Cl)ccc2NS(=O)(=O)c2ccc(C(C)(C)C)cc2)C1 [Compound 141] | < 1
8 | CC(C)n1cnnc1-c1cc(Cl)c(F)cc1NS(=O)(=O)c1ccc(C(C)(C)C)cc1 [Compound 78, 4-tert-butyl-N-(4-chloro-5-fluoro-2-(4-isopropyl-4H-1,2,4-triazol-3-yl)phenyl)benzenesulfonamide] | < 1
9 | Cc1ocnc1-c1nnc(-c2cc(Cl)ccc2NS(=O)(=O)c2ccc(C(C)(C)C)cc2)n1C [Compound 117] | < 1
10 | CCn1cnnc1-c1ccc(F)cc1NS(=O)(=O)c1ccc(C(C)(C)C)cc1 [Compound 23, 4-tert-butyl-N-(2-(4-ethyl-4H-1,2,4-triazol-3-yl)-5-fluorophenyl)benzenesulfonamide] | < 1
11 | CC(C)(C)c1ccc(S(=O)(=O)Nc2ccc(Cl)cc2-c2nncn2[C@H]2CCN(C(N)=O)C2)cc1 [Compound 143] | < 1
12 | CCc1nnc(-c2cc(C(=O)OC)ccc2NS(=O)(=O)c2ccc(C(C)(C)C)cc2)n1C [Compound 133, methyl 4-(4-tert-butylphenylsulfonamido)-3-(5-ethyl-4-methyl-4H-1,2,4-triazol-3-yl)benzoate] | < 1
13 | Cc1nnc(-c2cc(Cl)ccc2NS(=O)(=O)c2ccc(C(C)(C)C)cc2)n1CC(C)C [Compound 19, 4-tert-butyl-N-(4-chloro-2-(4-isobutyl-5-methyl-4H-1,2,4-triazol-3-yl)phenyl)benzenesulfonamide] | < 1
14 | CC(C)(C)c1ccc(S(=O)(=O)Nc2cc(F)c(Cl)cc2-c2nncn2[C@@H]2CCOC2)cc1 [Compound 53] | < 1
15 | CC(C)(C)c1ccc(S(=O)(=O)Nc2cc(F)c(F)cc2-c2nncn2[C@H]2CCNC2)cc1 [Compound 37] | < 1
16 | CC(C)c1nnc(-c2cc(Cl)c(F)cc2NS(=O)(=O)c2ccc(C(C)(C)C)cc2)n1C1CCOC1 (centres unmarked) [Compound 81] | < 1
17 | CCc1nnc(-c2cc(Cl)c(F)cc2NS(=O)(=O)c2ccc(C(C)(C)C)cc2)n1C1CCOC1 (centres unmarked) [Compound 47] | < 1
18 | Cc1nnc(-c2ccc(F)cc2NS(=O)(=O)c2ccc(C(C)(C)C)cc2)n1C [Compound 72, 4-tert-butyl-N-(2-(4,5-dimethyl-4H-1,2,4-triazol-3-yl)-5-fluorophenyl)benzenesulfonamide] | < 1

Row | SMILES | IC50 [µM]
19 | Cc1nnc(-c2cc(Cl)ccc2NS(=O)(=O)c2ccc(C(C)(C)C)cc2)n1[C@@H](C)CO [Compound 26] | < 1
20 | CC(C)NCc1nnc(-c2cc(Cl)c(F)cc2NS(=O)(=O)c2ccc(C(C)(C)C)cc2)n1C [Compound 49, 4-tert-butyl-N-(4-chloro-5-fluoro-2-(5-((isopropylamino)methyl)-4-methyl-4H-1,2,4-triazol-3-yl)phenyl)benzenesulfonamide] | < 1
21 | Cn1c(CCS(C)(=O)=O)nnc1-c1cc(Cl)c(F)cc1NS(=O)(=O)c1ccc(C(C)(C)C)cc1 [Compound 89, 4-tert-butyl-N-(4-chloro-5-fluoro-2-(4-methyl-5-(2-(methylsulfonyl)ethyl)-4H-1,2,4-triazol-3-yl)phenyl)benzenesulfonamide] | < 1
22 | Cn1c(-c2cc(Cl)c(F)cc2NS(=O)(=O)c2ccc(C(C)(C)C)cc2)nnc1[C@H]1CCCN1 [Compound 140] | < 1
23 | Cc1nnc(-c2cc(Cl)ccc2NS(=O)(=O)c2ccc(OC(C)C)cc2)n1C(C)C [Compound 15, N-(4-chloro-2-(4-isopropyl-5-methyl-4H-1,2,4-triazol-3-yl)phenyl)-4-isopropoxybenzenesulfonamide] | < 1
24 | CC(C)c1nnc(-c2cc(Cl)c(F)cc2NS(=O)(=O)c2ccc(C(C)(C)C)cc2)n1[C@H]1CCNC1 [Compound 146] | < 1
25 | CCc1nnc(-c2cc(Cl)ccc2NS(=O)(=O)c2ccc(C(C)(C)C)cc2)n1[C@H]1CCNC1 [Compound 119, (S)-4-tert-butyl-N-(4-chloro-2-(5-ethyl-4-(pyrrolidin-3-yl)-4H-1,2,4-triazol-3-yl)phenyl)benzenesulfonamide] | < 1
26 | COCc1nnc(-c2cc(Cl)ccc2NS(=O)(=O)c2ccc(C(C)(C)C)cc2)n1C1CCOCC1 [Compound 21, 4-tert-butyl-N-(4-chloro-2-(5-(methoxymethyl)-4-(tetrahydro-2H-pyran-4-yl)-4H-1,2,4-triazol-3-yl)phenyl)benzenesulfonamide] | < 1
27 | CCc1nnc(-c2cc(C(=O)O)ccc2NS(=O)(=O)c2ccc(C(C)(C)C)cc2)n1C [Compound 130, 4-(4-tert-butylphenylsulfonamido)-3-(5-ethyl-4-methyl-4H-1,2,4-triazol-3-yl)benzoic acid] | < 1
28 | COCCc1nnc(-c2cc(Cl)ccc2NS(=O)(=O)c2ccc(C(C)(C)C)cc2)n1C [Compound 41, 4-tert-butyl-N-(4-chloro-2-(5-(2-methoxyethyl)-4-methyl-4H-1,2,4-triazol-3-yl)phenyl)benzenesulfonamide] | < 1
29 | Cn1c(-c2cocn2)nnc1-c1cc(Cl)ccc1NS(=O)(=O)c1ccc(C(C)(C)C)cc1 [Compound 40] | < 1
30 | CCc1nnc(-c2cc(Cl)ccc2NS(=O)(=O)c2ccc(C(C)(C)C)cc2)n1C(C)C [Compound 13, 4-tert-butyl-N-(4-chloro-2-(5-ethyl-4-isopropyl-4H-1,2,4-triazol-3-yl)phenyl)benzenesulfonamide] | < 1
31 | Cn1c(CN2CCNCC2)nnc1-c1cc(Cl)c(F)cc1NS(=O)(=O)c1ccc(C(C)(C)C)cc1 [Compound 147] | < 1
32 | Cc1nnc(-c2cc(Cl)ccc2NS(=O)(=O)c2ccc(C(C)(C)C)cc2)n1C1CCNC1 (centres unmarked) [Compound 99] | < 1
33 | CCc1nnc(-c2cc(C(N)=O)ccc2NS(=O)(=O)c2ccc(C(C)(C)C)cc2)n1C [Compound 129, 4-(4-tert-butylphenylsulfonamido)-3-(5-ethyl-4-methyl-4H-1,2,4-triazol-3-yl)benzamide] | < 1
34 | Cc1nnc(-c2cc(F)c(F)cc2NS(=O)(=O)c2ccc(C(C)(C)C)cc2)n1[C@H]1CCNC1 [Compound 77, (S)-4-tert-butyl-N-(4,5-difluoro-2-(5-methyl-4-(pyrrolidin-3-yl)-4H-1,2,4-triazol-3-yl)phenyl)benzenesulfonamide] | < 1
35 | CC(C)n1cnnc1-c1ccc(Cl)cc1NS(=O)(=O)c1ccc(C(C)(C)C)cc1 [Compound 18, 4-tert-butyl-N-(5-chloro-2-(4-isopropyl-4H-1,2,4-triazol-3-yl)phenyl)benzenesulfonamide] | < 1

Reference: patent publication US8153818B2, “Triazolyl phenyl benzenesulfonamides” (ChemoCentryx, Inc., priority 2006, dated 2012)
